Here are results for 3 compounds from paper PMC9510826, “Catalytic promiscuity of O-methyltransferases from Corydalis yanhusuo leading to the structural diversity of benzylisoquinoline alkaloids” (Horticulture Research, 2022).

Structures are written as SMILES.

The Km is the substrate concentration at which the rate is half of its maximum.

In this test the target is T1, CyOMT2 (Corydalis yanhusuo, UniProt Z9M545XIG0, L253C).
T1 sequence (Z9M545XIG0 1-349 L253C): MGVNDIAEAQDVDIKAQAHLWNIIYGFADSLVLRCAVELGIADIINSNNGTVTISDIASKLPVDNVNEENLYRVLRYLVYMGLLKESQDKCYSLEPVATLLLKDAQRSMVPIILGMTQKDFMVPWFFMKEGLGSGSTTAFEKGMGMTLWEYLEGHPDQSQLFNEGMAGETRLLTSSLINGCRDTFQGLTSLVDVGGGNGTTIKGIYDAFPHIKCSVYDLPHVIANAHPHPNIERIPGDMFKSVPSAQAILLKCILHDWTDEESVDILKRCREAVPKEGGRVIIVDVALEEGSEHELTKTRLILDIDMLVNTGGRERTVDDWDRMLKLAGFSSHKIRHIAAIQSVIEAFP
Description: UPLC product quantification, Michaelis-Menten fit. The format is biochemical. Conditions: 200 μM SAM, 30 min. The source says: UPLC product quantification, Michaelis-Menten fit on CyOMT2

With `COc1cc2c(cc1O)[C@@H]1Cc3ccc(OC)c(O)c3CN1CC2` [compound 15, scoulerine], under “50 mM phosphate pH 7.0, 40°C”, the Km was found to be 12.2 ± 1.72 µM.

For the compound `COc1cc2c(cc1O)CC[n+]1cc3c(OC)c(OC)ccc3cc1-2` [compound 14, jatrorrhizine], the Km (50 mM phosphate pH 7.0, 40°C) is 34.8 ± 3.7 µM.

With `Oc1ccc(C[C@@H]2NCCc3cc(O)c(O)cc32)cc1` [compound 1, norcoclaurine], the Km (50 mM phosphate pH 7.5, 45°C) was 19.4 ± 3.39 µM.
